The source of these data is US20230120736A1, “ANTI-CD98 ANTIBODIES AND ANTIBODY DRUG CONJUGATES” (AbbVie Inc., priority 2016, published 2023).

Holding throughout (assay type): in vivo, mouse
Assay [1] has as its system A549 human lung carcinoma xenograft. Nature of the assay: A549 FP3 xenograft tumor growth inhibition, with or without docetaxel. To be noted: QDx1, Ab095 8 IP, docetaxel 7.5 IV, ADC 10 mg/kg/day IP. As to the method: (§1) The cell lines A549 and NCI-H460 were obtained from the American Type Culture Collection (ATCC, Manassas, Va.). A549 cell line was further passaged in mice as flank xenograft to improve xenograft tumor growth, resulting in the A549-FP3 line. Cells were cultured as monolayers in RPMI-1640 culture media (Invitrogen, Carlsbad, Calif.) supplemented with 10% Fetal Bovine Serum (FBS, Hyclone, Logan, Utah). To generate xenografts, 5×10^6 (A549 and NCI-H460) viable cells were inoculated subcutaneously into the right flank of immune deficient female SCID-bg mice (Charles River Laboratories, Wilmington, Mass.). The injection volume was 0.2 ml and composed of 1:1 S-MEM:Matrigel Matrigel (BD, Franklin Lakes, N.J.). Tumors were size matched at approximately 223 mm^3. […] Measurements of the length (L) and width (W) of the tumor were taken via electronic caliper and the volume was calculated according to the following equation: V=L×W^2/2. […]
(§2) To refer to efficacy of therapeutic agents, parameters of amplitude (TGI.), durability (TGD) are used. […] Tumor growth inhibition is calculated by 100*(1−Tv/Cv) where Tv and Cv are the mean tumor volumes of the treated and control groups, respectively. […] TGD is calculated by 100*(Tt/Ct−1) where Tt and Ct are the median time periods to reach 1 cm^3 of the treated and control groups, respectively.

Assay [2] concerns NCI-H460 human lung carcinoma xenograft. Nature of the assay: NCI-H460 xenograft tumor growth inhibition, with or without docetaxel. To be noted: QDx1, Ab095 8 IP, docetaxel 7.5 IV, ADC 10 mg/kg/day IP. As to the method: as §1, §2
The subject of assay [3] is NCI-H146 (human small cell lung cancer) xenograft. Nature of the assay: NCI-H146 xenograft tumor growth inhibition. The conditions noted are these: SCID-bg mice. As to the method:
The in vivo efficacy of anti-CD98 hybridoma mAb conjugates were tested using Ab3-CZ and Ab5-CZ as examples in NCI-H146 (human small cell lung cancer) xenograft model. […] The cells were cultured as monolayers in RPMI-1640 culture media (Invitrogen, Carlsbad, Calif.) that was supplemented with 10% Fetal Bovine Serum (FBS, Hyclone, Logan, Utah). To generate xenografts, 5×10^6 (NCI-H146) viable cells were inoculated subcutaneously into the right flank of immune deficient female SCID-bg mice (Charles River Laboratories, Wilmington, Mass.). The injection volume was 0.2 mL and composed of Matrigel (BD, Franklin Lakes, N.J.). Tumors were size matched at approximately 212 mm^3. Antibodies and conjugates were formulated in phosphate buffered saline, pH 7.2 and injected intraperitoneally. […] Therapy began within 24 hours after size matching of the tumors. Mice weighed approximately 21 g at the onset of therapy. Tumor volume was estimated two to three times weekly. Measurements of the length (L) and width (W) of the tumor were taken via electronic caliper and the volume was calculated according to the following equation: V=L×W^2/2. Mice were euthanized when tumor volume reached 3,000 mm^3 or skin ulcerations occurred. Eight mice were housed per cage. Food and water were available ad libitum. Mice were acclimated to the animal facilities for a period of at least one week prior to commencement of experiments. Animals were tested in the light phase of a 12-hour light: 12-hour dark schedule (lights on at 06:00 hours). Anti-CD98 conjugates (10 mg/kg) were administered as a single dose (QDx1) intraperitoneally. A human IgG control antibody (MSL109, a humanized IgG1 antibody that binds to cytomegalovirus (CMV) glycoprotein H) was used as a negative control agent.
To refer to efficacy of therapeutic agents, parameters of amplitude (TGImax), durability (TGD) and response frequency (CR, PR, OR) of therapeutic response are used. The efficacy of inhibition of NCI-H146 xenografts growth with CD98-targeted ADCs is illustrated by Table 6, below. In the tables, to refer to efficacy, parameters of amplitude (TGImax) and durability (TGD) of therapeutic response are used. TGImax is the maximum tumor growth inhibition during the experiment. Tumor growth inhibition is calculated by 100*(1−Tv/Cv) where Tv and Cv are the mean tumor volumes of the treated and control groups, respectively. TGD or tumor growth delay is the extended time of a treated tumor needed to reach a volume of 1 cm^3 relative to the control group. TGD is calculated by 100*(Tt/Ct−1) where Tt and Ct are the median time periods to reach 1 cm^3 of the treated and control groups, respectively. Distribution of the response amplitude in a specific group is given by the frequency of complete responders (CR), partial responders (PR), and overall responders (OR). CR is the percentage of mice within a group with a tumor burden of 25 mm^3 for at least three measurements. PR is the percentage of mice within a group with a tumor burden larger than 25 mm^3 but less than one-half of the volume at onset of treatment for at least three measurements. OR is the sum of CR and PR.
The in vivo anti-tumor efficacy of selected humanized anti-CD98 mAb conjugates were tested in NCI-H146 (human small cell lung cancer) xenograft model, as described in Example 6. Tumor growth inhibition was reported as TGImax in Table 28.

In assay [1], `CC(=O)O[C@@]12CO[C@@H]1C[C@H](O)[C@@]1(C)C(=O)[C@H](O)C3=C(C)[C@@H](OC(=O)[C@H](O)[C@@H](NC(=O)OC(C)(C)C)c4ccccc4)C[C@@](O)([C@@H](OC(=O)c4ccccc4)[C@H]21)C3(C)C` [Docetaxel, docetaxel, reference compound] gave a TGD of 80% and a TGImax of 62%. In assay [2], this compound returned a TGD of 30% and a TGImax of 35%.

“MSL109: "a humanized IgG1 antibody that binds to cytomegalovirus (CMV) glycoprotein H", "negative control agent" [reference compound]”: in assay [3] (10 mg/kg IP QDx1), the “Growth Inhibition TGD” value came to 0%, the “Growth Inhibition TGImax” value stood at 0%, the “Response Frequency CR” value stood at 0% and the “Response Frequency PR” value was determined as 0%. Further, the “Response Frequency OR” value in assay [3] (10 mg/kg IP QDx1, sum of CR and PR) was 0%.
